# Experimental data as given in PubChem BioAssay AID1996.
# Conditions: buffer; pH 7.4; 200.0 µM
row,SMILES,solubility kinetic [µg/mL]
1,CC(=O)Oc1ccc(/C=C/c2nc3ccccc3c(=O)o2)cc1,< 0.7
2,CCOc1ccc(CCNC(=O)c2ccc(=O)[nH]c2)cc1OCC,> 49.6
3,Clc1nnc(Cl)c2c1ncn2Cc1ccccc1,> 41.9
4,Cc1cccc(OCC(=O)NCc2ccccc2)c1,> 38.3
5,O=C(Nc1cc(Cl)cc(Cl)c1)c1ccno1,8.4
6,O=C(Cc1ccccc1)Oc1coc(CSc2ncccn2)cc1=O,> 53.2
7,Cc1cc(C)nc(SC2CC(=O)N(c3ccc(C)c(C)c3)C2=O)n1 (configuration not stated),19.7
8,CN(C)NC(=O)c1ccc([N+](=O)[O-])s1,> 32.3
9,CC1(C(=O)Nc2ccccc2)Cc2ccccc2C(=O)O1 (configuration not stated),> 42.2
10,Cc1ccc(C(O)CCc2ccc(N)cc2)cc1 (configuration not stated),31.9
11,COc1ccc(C(=O)Nc2ccc(NC(=O)C3CC3)cn2)cc1,5.8
12,C/C(=C\c1ccccc1)C(=O)Nc1ccc(Cl)cn1,7.2
13,CCOC(=O)c1c(/N=C/c2ccc(OC)cc2O)sc2c1CCN(C)C2,37
14,Cc1cc(C)cc(NC(=O)Cn2cc(C=O)c3ccccc32)c1,< 0.3
15,Cc1cccnc1Nc1nc(-c2ccccc2)cs1,7.6
16,O=C(/C=C/c1ccc(Cl)c(Cl)c1)Nc1cccnc1,0.6
17,Cc1ccc(CN2CCN(C3CCCC3)C(CCO)C2)s1 (configuration not stated),43.7
18,COc1ccc2[nH]c(=O)c(CNc3cc(C)ccc3C)cc2c1,1.8
19,Clc1nc(-c2ccccc2)ncc1Oc1ccccc1,< 0.3
20,O=C(NC1CCCCC1)c1ccc(-n2cncn2)c([N+](=O)[O-])c1,> 47.3
21,Cc1ccc(Nc2nc(N)c([N+](=O)[O-])c(NCCO)n2)cc1C,2.1
22,CCOC(=O)CCCc1ccc(/C(C)=N/NC(N)=S)cc1,> 46.1
23,CC(NC(=O)c1ccc(Br)o1)C1CCCO1 (configuration not stated),> 43.2
24,Cc1ccc(C(=O)NCCN2CCOCC2)cc1C,38.1
25,COC(=O)c1scc(S(=O)(=O)c2ccccc2)c1N,1.9

row,SMILES,solubility kinetic [µg/mL]
1,Cc1cc(/C=C2\NC(=S)NC2=O)c(C)n1-c1cccnc1,4.8
2,Cc1ccc(NC(=O)NC(=O)COc2c(F)c(F)cc(F)c2F)c(C)c1,20.5
3,CC1CCN(C(=O)CNC(=O)c2ccc(Br)o2)CC1,> 49.4
4,O=C(NCCCN1CCCC1)Nc1ccc(F)cc1,35.2
5,CSc1ccccc1NC(=O)COC(=O)/C=C/c1ccco1,16.9
6,OCCN(CCO)c1nc2ccccc2[nH]1,> 33.2
7,O=C(Nc1cccc(F)c1)Nc1ccc2c(c1)OCO2,4.4
8,COc1ccc(C2NC(=O)c3ccccc3N2)cc1 (configuration not stated),33.2
9,CCOc1ccc(/C=C(\C(=O)O)c2ccc(S(=O)(=O)N3CCCCC3)s2)cc1OC,> 67.7
10,O=C(Cn1cncn1)N/N=C/c1ccccc1Cl,> 39.6
11,COC(=O)CSc1nc(C)cc(C)n1,> 31.8
12,COc1ccc(OCC2CCNCC2)cc1.Cl,36.5
13,Cc1ccc(NC(=O)c2ccc(Cl)nc2)cc1,9.3
14,Cc1ccc(C(C)C)c(OC/C(O)=C(\C#N)c2nc3ccccc3[nH]2)c1,< 0.2
15,O=C(Nc1ccc(C2SCCS2)cc1)c1ccccc1,1.4
16,O=C(CCC(=O)c1cccs1)NC1CCCCCC1,25.6
17,COc1ccc(C(C)C)cc1S(=O)(=O)NC1CCCC1,3
18,CCc1ccc2[nH]c(=O)c(Cc3ccccc3)c(O)c2c1,> 41.9
19,Cc1ccc2c(c1)-c1[nH]c(=S)ncc1CS2,3.8
20,CC(=O)Nc1nc2ccccc2n1Cc1ccc(Cl)cc1,7.8
21,N#Cc1c(-c2ccncc2)cc(-c2ccc(F)cc2)nc1N,0.5
22,CC(=O)N1CC(=O)Nc2ccc(F)cc2C1c1ccccc1 (configuration not stated),> 44.7
23,O=C(OCC(=O)N1CCc2ccccc21)c1ccccc1F,1.7
24,Cc1onc(-c2ccccc2Cl)c1C(=O)Nc1ccccc1O,17.2
25,O=C(Cc1csc(-c2ccccc2)n1)NCC(=O)Nc1ccc(F)c(F)c1F,9

row,SMILES,solubility kinetic [µg/mL]
1,O=C(COC(=O)c1cc(Cl)nc(Cl)c1)NCCc1ccc(F)cc1,> 55.7
2,CCOc1ccc(OCCn2c(=S)[nH]c3c(N)ncnc32)cc1,20.1
3,CCCc1nnc(SCC(=O)N(CC)CC)n1CC1CCCO1 (configuration not stated),> 51.1
4,COc1cc(/C=C/C(=O)OCC(=O)NCCCc2ccccc2)ccc1O,52.9
5,Cc1cccc(CSc2nc3ccccc3c(=O)n2C)c1,1.2
6,Cc1cc(=O)c(C(=O)O)nn1-c1ccc(Cl)cc1,> 39.7
7,CSc1cccc(NC(=O)CNC(=O)C2CCCCC2)c1,22.7
8,COc1ccccc1C(=O)NCCNC(=O)c1ccc(C)nc1,45.7
9,Cc1cc(C)cc(N2CC(C(=O)Nc3cc(C)on3)CC2=O)c1 (configuration not stated),6.7
10,Cl.NC(Cc1ccccc1)c1nc2ccccc2[nH]1 (configuration not stated),40.3
11,COC(=O)c1ccccc1NC(=O)Nc1ccc(C)cn1,> 42.8
12,CC(=O)C1=C(C)NC2=C(C(=O)c3ccccc32)C1c1ccccc1 (configuration not stated),0.8
13,CN1CCN(Cc2cc(=O)n3ccsc3n2)CC1,35.7
14,CCN1CCN(CC(=O)c2cc(Cl)ccc2Cl)CC1,> 45.2
15,O=C(NC(=O)c1ccc(Cl)cc1)Nc1ccc(-c2cnco2)cc1,2.7
16,N/C(=N\OC(=O)c1cccc2ccccc12)c1ccccn1,38.2
17,CSc1ccc(C2Nc3cccc4cccc(c34)N2)cc1,2.4
18,Cn1c2ccccc2c2ncn(Cc3ccc(F)cc3)c(=O)c21,< 0.2
19,Cc1ccc(Cn2ccccc2=N)cc1.Cl,> 35.2
20,COc1ccccc1C1CC(=O)Nc2cc(C)c(C)cc21 (configuration not stated),< 0.6
21,Cn1cccc1-c1nc2ccc([N+](=O)[O-])cc2[nH]1,15.2
22,COc1cccc(CC(=O)Nc2nc(-c3ccc(F)c(F)c3)cs2)c1,0.5
23,Cc1cc(C)c(S(=O)(=O)NC2CC3CCC2C3)c(C)c1 (configuration not stated),< 0.6
24,Cc1ccc(NC(=O)COc2ccc(C(=O)c3ccccc3)cc2)c(O)c1,2.8
25,Cn1cccc1C1C(C#N)=C(N)OC2=C1C(=O)CC(C)(C)C2 (configuration not stated),43.2

row,SMILES,solubility kinetic [µg/mL]
1,CCCn1cnc2cc(NC(=O)c3ccco3)ccc21,> 40.4
2,OC(COc1ccccc1)CN1CCCC1 (configuration not stated),> 33.2
3,O=C(CCCc1ccccc1)NCCc1ccc(F)cc1,39.6
4,COc1ccc(-c2cc(-c3ccccc3)c(C#N)c(=S)[nH]2)cc1,3.2
5,CCC1Oc2ccccc2N(CC(=O)N2CCOCC2)C1=O (configuration not stated),> 45.7
6,Cc1ccc(NC(=O)Cc2ccccc2)cc1S(=O)(=O)N1CCOCC1,> 56.2
7,CC(C)(CN1CCc2ccccc2C1)NS(=O)(=O)c1ccccc1,34.8
8,O=C(Nc1nccs1)C1CC(=O)N(Cc2ccco2)C1 (configuration not stated),40.7
9,COC(=O)c1c(-c2ccccc2)c[nH]c1C,32
10,COc1ccc(CONc2ncnc3nonc23)cc1[N+](=O)[O-],> 47.7
11,Cc1ccccc1CNC(=O)c1ccc2ccccc2n1,9.2
12,CC(C)CCNC(=O)Cc1csc(-c2ccccc2)n1,41.4
13,CSc1nc2c(cc1C#N)CCC2,5.1
14,Cc1ccc(S(=O)(=O)Nc2ccc(Cl)cn2)cc1,28.3
15,O=C(c1ccccc1)c1ccccc1N=Cc1c(O)[nH]c(=O)[nH]c1=O,3.8
16,Cc1cccc2cc(C#N)c(NCc3ccccc3)nc12,11.4
17,COc1ccc(NC(=O)COC(=O)CCNC(=O)c2ccco2)cc1Cl,> 57.1
18,Nc1ccc(-c2nc3ncccc3o2)cc1,> 31.7
19,O=C(c1ccccc1)N1CCCC(C(=O)N2CCCCC2)C1 (configuration not stated),> 45.1
20,CCNC(=O)Cc1ccc(S(=O)(=O)N2CCOCC2)s1,> 47.8
21,COC(=O)c1c(C(=O)OC)c(-c2ccc(F)cc2)n2c1CS(=O)C2 (configuration not stated),> 52.7
22,CN1CCN(c2ccc(CNS(=O)(=O)Cc3ccc(Cl)cc3)cc2)CC1,2.8
23,CCOC(=O)C1CCCN(S(=O)(=O)Cc2ccc(Cl)cc2)C1 (configuration not stated),51
24,O=C(O)CSc1cccnc1Sc1ccc(Cl)cc1,> 46.8
25,O=C(COC(=O)c1ccc(Cl)cc1[N+](=O)[O-])NCc1ccco1,> 50.8

row,SMILES,solubility kinetic [µg/mL]
1,CN(C)/C=N/c1nc(-c2ccc3ccccc3c2)cs1,16
2,CCOC(=O)c1ccc(NC(=O)NCc2ccccn2)cc1,42.2
3,N/C(CC(=O)Nc1ccc(F)cc1F)=N\OC(=O)c1cccs1,16.3
4,Cc1ccc(S(=O)(=O)Nc2ccc(Nc3ccccc3)cc2)cc1,2.5
5,O=C(NCCCn1ccnc1)c1cc2ccccc2o1,> 40.4
6,NC(=O)C1CCN(C(=O)CSc2nc(O)cc(=O)[nH]2)CC1,31.1
7,O=C(O)c1cccc2c3c([nH]c12)CCCC3,> 32.3
8,C=CCNC(=O)c1cc(-c2cccnc2)nc2ccccc12,> 43.4
9,NC(=O)c1ccc(NCC2CCCO2)c([N+](=O)[O-])c1 (configuration not stated),> 39.8
10,O=[N+]([O-])c1cccc(NC(=S)N2CCc3ccccc32)c1,7.6
11,CC1CCCC(C)N1C(=O)COc1cccc(Oc2ccccc2)c1 (configuration not stated),20.8
12,COc1ccc(C(=O)NC(Cc2c[nH]c3ccccc23)C(=O)O)cc1 (configuration not stated),> 50.8
13,CC(=O)c1c(-c2ccccc2)[nH]c2ccccc12,1.4
14,CC(=O)c1ccc(S(=O)(=O)NCC(=O)NC(c2nc3ccccc3[nH]2)C(C)C)cc1 (configuration not stated),> 64.3
15,O=C1CC2(CCN(C(=O)c3ccc([N+](=O)[O-])cc3)CC2)Oc2ccccc21,3.2
16,COc1ccc(C(C)(C)C)cc1NC(=O)C1CCCO1 (configuration not stated),41.5
17,CCCC(=O)Nc1c(C(=O)OCC)oc2ccccc12,> 41.3
18,Cl.Fc1cccc(C2NCc3ccccc3-n3cccc32)c1 (configuration not stated),30.6
19,Cc1ccc(SCC(=O)NCc2ccc(F)cc2)cc1,9.5
20,CC1CC(C)CN(CC(=O)c2cccs2)C1 (configuration not stated),30.8
21,Cn1ccnc1C(OC(=O)c1ccccc1)C(F)(F)F (configuration not stated),> 42.6
22,COc1ccc(/C=C/C(=O)OCC(=O)NC2CC2)c(OC)c1,> 45.8
